From article PMC8146505, “Enantioselective Interactions of Anti-Infective 8-Aminoquinoline Therapeutics with Human Monoamine Oxidases A and B” (Pharmaceuticals, 2021)

Key:
recombinant human MAO-B = target: T1, recombinant human MAO-B (Homo sapiens, UniProt P27338); test: In vitro MAO inhibition assay (kynuramine oxidative deamination), IC50; type: biochemical; details: rhMAO-B, kynuramine 50 μM, steady-state, mean ± SD
T1 construct: purchased BD Biosciences (Bedford, MA, USA)
T1 sequence (P27338 1-520): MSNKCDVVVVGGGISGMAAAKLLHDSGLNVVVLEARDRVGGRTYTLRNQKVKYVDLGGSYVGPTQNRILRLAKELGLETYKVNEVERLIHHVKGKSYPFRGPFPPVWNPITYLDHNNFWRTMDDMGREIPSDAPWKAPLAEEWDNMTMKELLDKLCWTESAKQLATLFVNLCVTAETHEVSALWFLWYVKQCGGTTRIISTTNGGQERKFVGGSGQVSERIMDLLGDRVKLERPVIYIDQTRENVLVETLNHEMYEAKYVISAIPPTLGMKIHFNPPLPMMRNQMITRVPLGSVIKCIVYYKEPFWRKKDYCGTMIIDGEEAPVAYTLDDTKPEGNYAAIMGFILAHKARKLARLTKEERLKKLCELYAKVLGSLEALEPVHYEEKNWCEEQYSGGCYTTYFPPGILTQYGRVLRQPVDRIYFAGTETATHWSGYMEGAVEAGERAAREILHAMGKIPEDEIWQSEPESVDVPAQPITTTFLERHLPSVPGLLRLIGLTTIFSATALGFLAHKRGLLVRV
Procedure: (§1) A fixed concentration of kynuramine substrate and varying concentrations of the test compounds were used to determine the IC50 values. Kynuramine concentrations for MAO-A and -B assays were 80 μM and 50 μM, respectively. The concentrations of PQ and NPC1161 enantiomers varied from 0.1 μM to 200 μM, for the rhMAO-A and -B enzyme activity inhibition. The test compounds were dissolved in DMSO, diluted in the buffer solution just before the assay, and pre-incubated with the enzyme (MAO-A (5 μg/mL) or -B (12.5 μg/mL)) for 10 min at 37 °C. […] The enzymatic reactions were initiated by the addition of the substrate (kynuramine 80 and 50 μM, for MAO-A and -B, respectively) and incubated for 20 min at 37 °C. The enzyme reactions were terminated by the addition of 78 μL of 2N NaOH to each well. The formation of 4-hydroxyquinoline (the enzyme reaction end product) was recorded fluorometrically on a SpectraMax M5 fluorescence plate reader (Molecular Devices, Sunnyvale, CA, USA) with 320 nm excitation and 380 nm emission wavelengths, using the Soft MaxPro-6 program. The inhibition of enzyme activity was calculated in terms of product formation as a percentage of corresponding controls (enzyme–substrate reaction without inhibitors). Assay controls, to define the interference of the test compounds with the fluorescence measurements, were set up simultaneously, and the enzyme or substrate was added after stopping the reaction.
(§2) The enzyme assays were performed at a steady-state fixed concentration of the substrate kynuramine (80 μM for MAO-A and 50 μM for MAO-B) and different concentrations of the test compounds (PQ and NPC1161 enantiomers). The dose–response enzyme-inhibition curves were generated using Microsoft® Excel (Figure 2), and the IC50 values were computed with XLfit®.

recombinant human MAO-A = target: T2, recombinant human MAO-A (Homo sapiens, UniProt P21397); test: as above; type: biochemical; details: rhMAO-A, kynuramine 80 μM, steady-state, mean ± SD
T2 construct: purchased BD Biosciences (Bedford, MA, USA)
T2 sequence (P21397 1-527): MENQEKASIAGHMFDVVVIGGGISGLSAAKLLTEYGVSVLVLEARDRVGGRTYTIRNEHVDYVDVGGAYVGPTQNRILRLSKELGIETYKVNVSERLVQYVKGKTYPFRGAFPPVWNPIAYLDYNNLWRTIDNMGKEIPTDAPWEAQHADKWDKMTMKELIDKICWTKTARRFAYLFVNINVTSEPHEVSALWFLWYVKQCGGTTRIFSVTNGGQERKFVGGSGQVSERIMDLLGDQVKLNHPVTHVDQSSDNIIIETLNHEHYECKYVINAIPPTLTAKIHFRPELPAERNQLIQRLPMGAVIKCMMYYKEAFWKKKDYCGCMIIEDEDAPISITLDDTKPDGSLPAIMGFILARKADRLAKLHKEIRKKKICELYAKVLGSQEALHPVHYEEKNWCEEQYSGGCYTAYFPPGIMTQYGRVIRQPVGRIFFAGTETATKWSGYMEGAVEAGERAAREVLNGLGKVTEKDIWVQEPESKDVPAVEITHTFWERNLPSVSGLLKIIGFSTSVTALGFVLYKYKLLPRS
Procedure: as §1, §2

Structure (SMILES)	IC50 (recombinant human MAO-B) [µM]	IC50 (recombinant human MAO-A) [µM]
COc1cc(N[C@@H](C)CCCN)c2ncccc2c1 [(S)-(+)-Primaquine]	170 ± 15.3	
COc1cc(N[C@H](C)CCCN)c2ncccc2c1 [(R)-(−)-Primaquine]	117 ± 8.82	
COc1ccc2c(c1)[nH]c1c(C)nccc12 [Harmine]	53.1 ± 3.91	

Further compounds by falling IC50 (recombinant human MAO-B), results first:

IC50 (recombinant human MAO-B) [µM]	IC50 (recombinant human MAO-A) [µM]	Structure (SMILES)
107 ± 1.18		COc1cc(NC(C)CCCN)c2ncccc2c1 (racemic) [(RS)-(±)-Primaquine, Primaquine]
0.95 ± 0.07	2.7 ± 0.14	COc1cc(C)c2c(Oc3cccc(C(F)(F)F)c3)c(OC)cc(NC(C)CCCN)c2n1 (stereo not drawn) [Tafenoquine, 4-N-[2,6-dimethoxy-4-methyl-5-[3-(trifluoromethyl)phenoxy]quinolin-8-yl]pentane-1,4-diamine]
